From the supplement of paper PMC10307832

Assays:
Assay in all cases: relative viability (nuclei count vs DMSO), 5 days (fraction); higher = more cells survive
[1] = compound: O=C(O)C(Cc1ccccc1[N+](=O)[O-])=NNc1nc(-c2ccc(Cl)c(Cl)c2)cs1 (mixture of isomers) [4EGI-1] + CC1(C)CCC(c2ccc(Cl)cc2)=C(CN2CCN(c3ccc(C(=O)NS(=O)(=O)c4ccc(N[C@H](CCN5CCOCC5)CSc5ccccc5)c(S(=O)(=O)C(F)(F)F)c4)cc3)CC2)C1 [Navitoclax] (partner 0.5 µM)
Outline: (§1)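 One day after seeding in 1536-well plates, lung cancer cell lines were dosed by pin tool. Dosing was either single-drug or a fixed anchor-drug dose plus five library-drug doses (not always all listed) in √10 steps. After 5 days, nuclei were stained in one fix-and-stain step and counted on 4× images, and relative viability is the nuclei count of treated wells over that of vehicle wells, given as the median of duplicate plates.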

[2] = compound: CN1CCN(CC1)C2=CC(=C(C=C2)NC3=NC=C4C(=N3)N(C5=CC=CC=C5C(=O)N4C)C)OC [XMD8-85] + O=C(CCCCCCC(=O)Nc1ccccc1)NO [Vorinostat] (partner 1 µM)
Outline: as §1

[3] = compound: O=C(O)C(Cc1ccccc1[N+](=O)[O-])=NNc1nc(-c2ccc(Cl)c(Cl)c2)cs1 (mixture of isomers) [4EGI-1] + C[C@]1(O)C[C@@H](c2nc(-c3ccc4ccc(-c5ccccc5)nc4c3)c3c(N)nccn32)C1 [Linsitinib] (partner 1 µM)
Outline: as §1

[4] = compound: CN1CCN(CC1)C2=CC(=C(C=C2)NC3=NC=C4C(=N3)N(C5=CC=CC=C5C(=O)N4C)C)OC [XMD8-85] + COc1cccc2cc(-c3nc([C@H]4CC[C@H](C(=O)O)CC4)n4ncnc(N)c34)[nH]c12 [OSI-027] (partner 0.5 µM)
Outline: as §1

Cell Line	relative viability ([1]; first compound 0.5 µM)	relative viability ([1]; first compound 5 µM)	relative viability ([1]; first compound 15.81 µM)	relative viability ([1]; first compound 50 µM)	relative viability ([2]; first compound 0.08 µM)	relative viability ([2]; first compound 0.253 µM)	relative viability ([2]; first compound 0.8 µM)	relative viability ([2]; first compound 2.53 µM)	relative viability ([2]; first compound 8 µM)	relative viability ([3]; first compound 0.5 µM)	relative viability ([3]; first compound 5 µM)	relative viability ([3]; first compound 15.81 µM)	relative viability ([3]; first compound 50 µM)	relative viability ([4]; first compound 0.08 µM)	relative viability ([4]; first compound 0.253 µM)	relative viability ([4]; first compound 0.8 µM)	relative viability ([4]; first compound 2.53 µM)	relative viability ([4]; first compound 8 µM)	relative viability ([1]; first compound 1.581 µM)	relative viability ([3]; first compound 1.581 µM)
NCI-H1395	1.38	1.27	1.09	0.566	0.556	0.668	0.739	0.887	0.406	1.29	1.52	0.874	0.534	0.754	0.64	0.667	0.664	0.489	–	–
LOU-NH91	0.91	0.741	0.367	0.526	0.896	0.904	0.91	1.04	0.641	1.11	0.97	0.543	0.665	0.705	0.735	0.672	0.827	–	–	–
NCI-H441	0.467	0.449	0.511	0.203	0.72	0.666	0.859	1.02	0.698	0.77	0.798	0.469	0.196	0.522	0.65	0.654	0.699	0.68	0.552	0.492
NCI-H2405	1.28	1.09	1.15	0.58	0.993	0.992	1.08	1.06	0.549	1.14	1.02	1.02	0.536	0.6	0.645	0.604	0.598	0.631	0.628	0.889
SK-LU-1	0.792	0.974	0.548	0.161	–	–	0.92	0.9	0.694	1.31	1.46	1.14	0.283	0.287	0.383	–	0.365	0.297	1.09	1.35
NCI-H838	1.24	1.26	1.04	0.218	0.729	0.739	0.706	0.641	0.409	1.19	1.02	0.854	0.434	0.386	0.463	0.343	0.346	0.339	–	–
HCC-15	0.797	0.744	0.685	0.494	0.896	0.819	0.806	0.792	0.586	0.884	0.865	0.728	0.432	0.615	0.689	0.669	–	0.541	0.781	0.836
EPLC-272H	1.31	1.35	0.951	0.969	0.414	0.401	0.335	0.296	0.243	1.31	1.19	1.21	1.24	0.282	0.251	0.266	0.305	0.27	0.938	0.938
NCI-H1755	1.02	0.949	0.86	0.833	0.8	0.799	0.695	0.761	0.692	0.966	0.958	0.932	0.572	0.677	0.787	0.645	–	0.531	0.995	0.99
EMC-BAC-2	1.16	1.05	1.08	1.09	0.424	0.468	0.413	0.385	0.185	0.86	0.791	0.777	0.736	0.358	0.385	0.368	0.404	0.313	1.2	0.748
201T	1.25	1.2	1.19	1.19	1.01	1.03	0.961	0.978	0.741	1.04	1.03	0.913	0.899	0.88	0.824	0.398	0.367	0.493	1.21	0.922
HARA	1.15	1.12	1.15	0.672	0.549	0.592	0.565	0.427	0.47	0.982	1.05	0.973	0.209	0.467	0.574	0.523	0.478	0.229	1.1	0.955
LC-2-ad	0.536	0.398	0.25	0.0791	0.739	–	0.702	0.691	0.434	0.897	0.83	0.432	0.13	0.745	0.859	0.794	0.779	0.613	0.486	0.764
NCI-H2087	1.08	0.999	0.647	0.218	0.668	0.967	0.806	0.708	0.456	0.983	1	0.66	0.307	0.612	0.586	0.582	0.686	0.552	0.883	0.983
EKVX	1.09	0.911	0.803	0.603	0.631	0.8	0.851	0.91	0.626	1.12	0.964	0.755	0.882	0.746	0.872	0.661	0.73	–	0.77	0.859
NCI-H1355	1.07	0.841	0.644	0.677	0.682	0.564	0.642	0.655	0.545	0.927	0.714	0.611	0.614	0.385	0.43	0.403	0.448	0.309	0.95	0.831
